Patent US20030225273A1, “Thiopyrimidine and isothiazolopyrimidine kinase inhibitors” (priority 2002, published 2003)

For `Cc1ccccc1NC(=O)Nc1ccc(-c2c(CCO)sc3ncnc(N)c23)cc1` [Example 107, N-{4-[4-amino-6-(2-hydroxyethyl)thieno[2,3-d]pyrimidin-5-yl]phenyl}-N′-(2-methylphenyl)urea], the melting point was 159 to 162 °C.

Work on `COCCc1sc2ncnc(N)c2c1-c1ccc(N(C(N)=O)c2ccccc2C)cc1` [Example 137, N-{4-[4-amino-6-(2-methoxyethyl)thieno[2,3-d]pyrimidin-5-yl]phenyl}-N-(2-methylphenyl)urea] yielded a melting point of 217 to 219 °C.

Compound `Nc1ncnc2sc(Cc3cccnc3)c(-c3ccc(NC(=O)Nc4cccc(Cl)c4)cc3)c12` [Example 117, N-{4-[4-amino-6-(pyridin-3-ylmethyl)thieno[2,3-d]pyrimidin-5-yl]phenyl}-N′-(3-chlorophenyl)urea] has a melting point of 169 to 172 °C.

`COCCc1sc2ncnc(N)c2c1-c1ccc(NC(=O)c2ccccc2)cc1` [Example 113, N-{4-[4-amino-6-(2-methoxyethyl)thieno[2,3-d]pyrimidin-5-yl]phenyl}benzamide] showed a melting point of 200 to 202 °C.

For `Nc1ncnc2sc(Cc3ccncc3)c(-c3ccc(NC(=O)Nc4cccc(C(F)(F)F)c4)cc3)c12` [Example 142, N-{4-[4-amino-6-(pyridin-4-ylmethyl)thieno[2,3-d]pyrimidin-5-yl]phenyl}-N′-[3-(trifluoromethyl)phenyl]urea], the melting point was 162 to 166 °C.

In the case of `COCCc1sc2ncnc(N)c2c1-c1ccc(NC(=O)Nc2ccc(C)cc2)cc1` [Example 110, N-{4-[4-amino-6-(2-methoxyethyl)thieno[2,3-d]pyrimidin-5-yl]phenyl}-N′-(4-methylphenyl)urea], the melting point is reported as 128 to 132 °C.

`Nc1ncnc2sc(Cc3ccccc3)c(-c3ccc(NS(=O)(=O)c4ccccc4)cc3)c12` [Example 13, N-[4-(4-amino-6-benzylthieno[2,3-d]pyrimidin-5-yl)phenyl]benzenesulfonamide] showed a melting point of 100 to 105 °C.

`CC(C)c1sc2ncnc(N)c2c1-c1ccc(NC(=O)c2ccccc2)cc1` [Example 8, N-[4-(4-amino-6-isopropylthieno[2,3-d]pyrimidin-5-yl)phenyl]benzamide] showed a melting point of over 250 °C.

`NC(=O)N(c1ccc(-c2c(CCO)sc3ncnc(N)c23)cc1)c1cccc(C(F)(F)F)c1` [Example 139, N-{4-[4-amino-6-(2-hydroxyethyl)thieno[2,3-d]pyrimidin-5-yl]phenyl}-N-[3-(trifluoromethyl)phenyl]urea] gave a melting point of 155 to 158 °C.

Work on `COCCc1sc2ncnc(N)c2c1-c1ccc(NC(=O)Nc2cc(C(F)(F)F)ccc2F)cc1` [Example 140, N-{4-[4-amino-6-(2-methoxyethyl)thieno[2,3-d]pyrimidin-5-yl]phenyl}-N′-[2-fluoro-5-(trifluoromethyl)phenyl]urea] yielded a melting point of 209 to 211 °C.

Work on `Cc1cccc(CC(=O)Nc2ccc(-c3c(CCO)sc4ncnc(N)c34)cc2)c1` [Example 350, N-{4-[4-amino-6-(2-hydroxyethyl)thieno[2,3-d]pyrimidin-5-yl]phenyl}-2-(3-methylphenyl)acetamide] yielded a melting point of 142 to 144 °C.

`COCCc1sc2ncnc(N)c2c1-c1ccc(NS(=O)(=O)c2ccccc2)cc1` [Example 111, N-{4-[4-amino-6-(2-methoxyethyl)thieno[2,3-d]pyrimidin-5-yl]phenyl}benzenesulfonamide] gave a melting point of 206 to 208 °C.

Compound `Cc1ccc(NC(=O)Nc2ccc(-c3c(Cc4ccccc4)sc4ncnc(N)c34)cc2)cc1` [Example 9, N-[4-(4-amino-6-benzylthieno[2,3-d]pyrimidin-5-yl)phenyl]-N′-(4-methylphenyl)urea] has a melting point of 169 to 173 °C.

With `COCCc1sc2ncnc(N)c2c1-c1ccc(NC(=O)Cc2cccc(C)c2)cc1` [Example 112, N-{4-[4-amino-6-(2-methoxyethyl)thieno[2,3-d]pyrimidin-5-yl]phenyl}-2-(3-methylphenyl)acetamide] the melting point was 200 to 202 °C.
